Measured values: patent US20220273678A1 (priority 2020, published 2022)
Entries after “also recorded” stand apart in the source; their conditions may differ. Where a name gives a salt, the structure may show the parent alone. Read-outs that look alike come from different tables or passages of the source.

Legend:
IL-6, IL-10 = assay type: cell-based, human
SARS-CoV-2 = experiment: microbe, parasite or virus in culture; assay type: cell-based
Calu3 cells = experiment: XTT cell cytotoxicity assay in uninfected Calu3 cells; assay type: cell-based, human
Method: (§1) To measure cell viability to determine if there was any treatment-induced cytotoxicity, cells were plated and treated with drugs as described above. Cells were exposed to the same dilution series created for the in vitro efficacy studies. As above, vehicle-treated cells served as the 0% cytotoxicity control. After 24 h, cell viability was measured on a Synergy 2 Biotek microplate reader (Biotek Inc) via the XTT Cell Proliferation Assay Kit (ATCC® 30-1011K™) according to the manufacturer's protocol. Similar data were obtained in three independent experiments.

Nrf2, Keap1, HO-1 = experiment: Nrf2, Keap1 and HO-1 protein levels in Calu3 cells, flow cytometry; assay type: cell-based, human; settings: for HO-1 protein levels: Calu3, 10 μM DMF, 100-1000 nM Mito-MES, Mito-MES with DMF, 0.25 μM Brusatol, 10 μM 4F; for protein levels of Keap (Keap1) / protein levels of Nrf2: infected and uninfected Calu3
[1] = test system: IL-6, IL-1β, IL-8, IL-10, TNF-α; assay type: cell-based, human; settings: 0.25 μM brusatol; for release of IL-6 from infected cells: 10 μM DMF, 10-100 μM DMF+100-1000 nM Mito-MES
uninfected cells = experiment: XTT cell cytotoxicity assay in similarly treated uninfected cultures (Mito-TEMPO, 4F); assay type: cell-based; settings: Mito-TEMPO 10-1000 nM
Method: as §1

icSARS-CoV-2-mNG [2] = assay type: cell-based, SARS-CoV-2
icSARS-CoV-2-mNG [3] = assay type: cell-based, SARS-CoV-2; remark: listed apart in the source
[4] = test system: hACE2 HEK293T cells and ALI HAE cultures; settings: 1000 nM

Molecule: COC1=C(OC)C(=O)C(C/C=C(\C)CC/C=C(\C)CC/C=C(\C)CC/C=C(\C)CC/C=C(\C)CC/C=C(\C)CC/C=C(\C)CC/C=C(\C)CC/C=C(\C)CCC=C(C)C)=C(C)C1=O [CoQ10, Coenzyme Q10]
- secretion / release of IL-6 (IL-6, IL-10): reduced subsequent release of IL-6

Molecule: COC(=O)/C=C/C(=O)OC [DMF, dimethyl fumarate]
- release of progeny SARS-CoV-2 virus particles, TCID50 assay (SARS-CoV-2; Calu3, 10 μM DMF pretreatment 24 h, alone or with 10-1000 nM Mito-MES): had anti-SARS-CoV-2 activity; also recorded: reduction in subsequent release of progeny SARS-CoV-2 virus particles
- Viral replication by flow cytometry at 48 hpi in Calu3 cells (SARS-CoV-2; DMF 10 μM, Mito-MES 100 nM, Mito-MES 100 nM+DMF 10 μM, […]): 5.4%
- Viral replication by flow cytometry at 48 hpi in Calu3 cells (SARS-CoV-2; DMF 100 μM, Mito-MES 100 nM+DMF 100 μM, control 9.3%): 2.1%
- cytotoxicity, XTT cell cytotoxicity assay (Calu3 cells; 100 μM DMF, 24 h): cytotoxic
- HO-1 protein levels (Nrf2, Keap1, HO-1): increased protein levels of heme oxygenase-1 (HO-1)
- protein levels of Keap (Keap1) (Nrf2, Keap1, HO-1): reduced protein levels of the endogenous Nrf2 inhibitor, Keap1; also recorded: reduced protein levels of Keap
- protein levels of Nrf2 (Nrf2, Keap1, HO-1): did not impact protein levels of Nrf2
- release of IL-6 from infected cells [1]: reduction in subsequent release of IL-6

Molecule: CC1(C)CC(NC(=O)C[P+](c2ccccc2)(c2ccccc2)c2ccccc2)CC(C)(C)N1[O] [Mito-TEMPO]
- cytotoxicity, XTT cell cytotoxicity assay (uninfected cells): no observed cytotoxicity
- antiviral activity against fluorescent SARS-CoV-2 (icSARS-CoV-2-mNG [2]): potent and similar antiviral activity
- antiviral activity against fluorescent SARS-CoV-2 (icSARS-CoV-2-mNG [3]): potent and similar antiviral activity

Molecule: CCCCCCCCCC[P+](c1ccccc1)(c1ccccc1)c1ccccc1.[Br-] [dTPP]
- antiviral activity, viral replication by TCID50-assay (SARS-CoV-2; Calu3, dTPP 1000 nM): Antiviral activity was observed
- cytotoxicity, XTT assay (Calu3 cells; uninfected Calu3, dTPP 1000 nM): not cytotoxic
- secretion / release of IL-6 (IL-6, IL-10): reduced subsequent release of IL-6
- cytotoxicity [4]: not cytotoxic

Molecule: brusatol
- percent of infected Calu3 cells positive for the N protein, flow cytometry (data not shown) (SARS-CoV-2; 10 nM Mito-MES+10 μM DMF, 0.25 μM brusatol): directly enhanced SARS-CoV-2 infection
- effect of brusatol on the antiviral effect of DMF and Mito-MES (SARS-CoV-2; Calu3, 0.25 μM brusatol 24 h): inhibited the antiviral effect of both DMF alone and Mito-MES
- release of progeny virus / SARS-CoV-2 replication, TCID50 (SARS-CoV-2; Calu3, 0.25 μM brusatol pretreatment): significantly increased SARS-CoV2 replication; also recorded: significantly increased subsequent release of progeny SARS-CoV-2 virus particles
- Viral replication by flow cytometry at 48 hpi in Calu3 cells (SARS-CoV-2; Mito-MES 1000 nM, Brusatol 250 nM, Mito-MES 1000 nM+Brusatol 250 nM): 39.9%
- HO-1 protein levels (Nrf2, Keap1, HO-1): increased the HO-1 protein levels
- protein levels of Keap (Keap1) (Nrf2, Keap1, HO-1): increased protein levels of Keap
- protein levels of Nrf2 (Nrf2, Keap1, HO-1): reduced protein levels of Nrf2
- effect of brusatol on the anti-inflammatory effect of Mito-MES (IL-6) ([1]; Calu3): inhibited the anti-inflammatory effect of Mito-MES
- release of IL-6 from infected cells [1]: significantly increased subsequent release of IL-6
